The record followed here is ChEMBL document CHEMBL1158786, “Triterpenoid saponin anthranilates from Albizia grandibracteata leaves ingested by primates in Uganda” (J Nat Prod, 2005).

For assay [1], the system named is MCF7. Description: Cytotoxicity against human MCF7 cells. The format is functional, cell-based.
The test system of assay [2] is KB. Description: Cytotoxicity against human KB cells. The format is functional, cell-based.

pIC50: −log10 of the molar value.

In the case of `CC(=O)N[C@H]1[C@H](O[C@H]2CC[C@]3(C)[C@H]4CC=C5[C@@H]6CC(C)(C)[C@@H](OC(=O)c7ccccc7N)C[C@]6(C(=O)O[C@@H]6O[C@H](CO[C@@H]7O[C@H](CO)[C@@H](O)[C@H](O)[C@H]7O)[C@@H](O)[C@H](O)[C@H]6O[C@@H]6O[C@@H](C)[C@H](O[C@@H]7OC[C@@H](O)[C@H](O)[C@H]7O)[C@@H](O)[C@H]6O)[C@H](O)C[C@@]5(C)[C@]4(C)CC[C@H]3C2(C)C)O[C@H](CO[C@@H]2O[C@H](C)[C@H](O)[C@H](O)[C@H]2O[C@@H]2OC[C@@H](O)[C@H](O)[C@H]2O)[C@@H](O)[C@@H]1O` [GRANDIBRACTEOSIDE B], the pIC50 was 5.77 in assay [1] and 5.64 in assay [2].
With `CC(=O)N[C@H]1[C@H](O[C@H]2CC[C@]3(C)[C@H]4CC=C5[C@@H]6CC(C)(C)[C@@H](OC(=O)c7ccccc7N)C[C@]6(C(=O)O[C@@H]6O[C@H](CO)[C@@H](O)[C@H](O)[C@H]6O[C@@H]6O[C@@H](C)[C@H](O[C@@H]7OC[C@@H](O)[C@H](O)[C@H]7O)[C@@H](O)[C@H]6O)[C@H](O)C[C@@]5(C)[C@]4(C)CC[C@H]3C2(C)C)O[C@H](CO[C@@H]2O[C@H](C)[C@H](O)[C@H](O)[C@H]2O[C@@H]2OC[C@@H](O)[C@H](O)[C@H]2O)[C@@H](O)[C@@H]1O` [GRANDIBRACTEOSIDE A], the pIC50 was 6.40 in assay [1] and 5.89 in assay [2].
Turning to `COc1cccc2c1C(=O)c1c(O)c3c(c(O)c1C2=O)C[C@@](O)(C(=O)CO)C[C@@H]3O[C@H]1C[C@H](N)[C@H](O)[C@H](C)O1` [DOXORUBICIN], the pIC50 in assay [1] and in assay [2] was 7.00 in each case.
In the case of `CC(=O)N[C@H]1[C@H](O[C@H]2CC[C@]3(C)[C@H]4CC=C5[C@@H]6CC(C)(C)[C@@H](OC(=O)c7ccccc7N)C[C@]6(C(=O)O[C@@H]6O[C@H](CO)[C@@H](O)[C@H](O)[C@H]6O[C@@H]6O[C@@H](C)[C@H](O[C@@H]7O[C@@H](CO)[C@H](O)[C@H]7O)[C@@H](O[C@@H]7O[C@H](CO)[C@@H](O)[C@H](O)[C@H]7O)[C@H]6O)[C@H](O)C[C@@]5(C)[C@]4(C)CC[C@H]3C2(C)C)O[C@H](CO[C@@H]2O[C@H](C)[C@H](O)[C@H](O)[C@H]2O[C@@H]2OC[C@@H](O)[C@H](O)[C@H]2O)[C@@H](O)[C@@H]1O` [GRANDIBRACTEOSIDE C], the pIC50 was 5.77 in assay [1] and 5.64 in assay [2].

For orientation: pIC50 means the negative decadic logarithm of the IC50, by convention in mol/L. A high value points to a low IC50.
